Laboratory results as given in paper PMC11904948, “Peptide‐Drug Conjugate for Therapeutic Reprogramming of Tumor‐Associated Macrophages in Breast Cancer” (Advanced Science, 2025).

How the values were obtained:
[1] = test system: BMDM obtained from C57/Bl6 (B6) mice; assay: Flow cytometry and real-time PCR on B6 BMDM; format: cell-based, mouse
Method: At the mRNA level, MACTIDE‐V induced a clear increase in Il‐12, Chil3 and Nos2 genes, (Figure 6D, left panel). […] To further investigate whether the effect of MACTIDE‐V was mediated by YAP targeting, we analyzed a set of 7 YAP‐regulated genes (Figure 6D, right panel).
Figure S6. In vitro effect of MACTIDE-V on B6 mice-derived BMDMs. (A) Flow cytometry on BMDMs 48 h after treatment. GeoMean of MHC II in B6 BMDM, n=4 independent experiments. *p≤0.05. (B) Heatmap of the mRNA expression of genes involved in the functional activation of BMDM, measured by real-time PCR 48 h after treatment in B6 BMDM, n=2 independent experiments.

[2] = test system: orthotopic 4T1.2 tumors; assay: MACTIDE-V monotherapy in orthotopic 4T1.2; format: in vivo, Balb/c mice
Method: We evaluated the effect of MACTIDE‐V on tumor progression and metastasis in the highly metastatic orthotopic 4T1.2 model.^[ [33] ^] When tumors reached 55 mm^3 we began the treatment with MACTIDE‐V or CtrlPep‐V every other day until day 23, using the same dose used in section 5. […] No body weight loss was detected in any of the groups (Figure S7, Supporting Information).
Figure 7 MACTIDE‐V slows tumor growth and suppresses lung metastasis in orthotopic 4T1.2. 4T1.2 bearing mice were treated with 9 doses of CtrlPep‐V, MACTIDE‐V (1 mg Kg^−1 in Verteporfin per dose), or PBS i.p. every other day, while monitoring the primary tumor volume (A). Mice were sacrificed on day 25, tumor weights were measured (B) and pulmonary metastasis areas were quantified from H&E sections (C). D–G) Tumor cell suspensions were analyzed by flow cytometry (n = 4 per group). H) Representative mIHC images of PBS, CtrlPep‐V, and MACTIDE‐V treated tumors, scale bar = 100 µm. I) CD8^+ T cells, CD4^+ T cells, and Treg density obtained from mIHC images (n = 6 mice/group), with every dot representing the mean cell density of each tumor obtained from 20 images. Median ± interquartile range. One‐way ANOVA with multiple comparisons, ^* p ≤ 0.05, ^** p ≤ 0.01.
5×10^5 4T1.2 cells in 50 µL of PBS was injected subcutaneously to 4th mammary fat pad. On day 7, mice were sorted into groups based on tumor volume, ≈55—60 mm^3 calculated based on the formula shown above. Mice were treated every other day with 500 µL of MACTIDE‐V, CtrlPep‐V (30 nmol), and PBS, 9 injections in total, n = 10 mice/group. The cumulative Verteporfin dose was 9 mg kg^−1. The last injection was on day 23. Four mice from each group were sacrificed on day 25 through anesthetic overdose and their tumors were analyzed by flow cytometry (FC) and mIHC. The rest of the mice were left to continue in the study with the initial intention of performing a survival study, however, all of these mice were sacrificed within 5 days based on their tumor size (above 1500 mm^3) or cachexia.
For FC, mice were not perfused, the tumors were cut into small pieces, digested using 10 mL of collagenase IV (200 U mL^−1, Gibco, catalog no.17104019), dispase (0.6 U mL^−1, Gibco, catalog no. 17105‐041) and DNase I (15 U mL^−1, AppliChem, catalog no. A3778) mixture on a rotating platform for up to 60 min at 37 °C, pipetting every 10 min. Red blood cells were lysed using 3 mL of ammonium‐chloride‐potassium lysis buffer. After that, cells were centrifuged (350×g, 7 min, +4 °C), filtered (100 µm cell strainer, Falcon, catalog no. 352360), and counted using the bright‐field mode of LUNA Automated Cell counter (Logos Biosystems). Cells were seeded at a concentration of 5×10^6 cells/100 µL of running buffer (RB) (1L of RB: 4 mL 0.5M EDTA + 100 mL FBS + the rest PBS) on the 96‐well conical bottom plate and incubated for 15 min in dark at RT in 50 µL of Zombie NIR Fixable Viability Kit (BioLegend). After that, 30 µL of blocking antibody (TruStain FcX, Biolegend) was added and incubated for 10 min in the dark at +4 °C. Then, to stain macrophages, 20 µL of antibody mixture was added, and incubated for 25 min in the dark at +4 °C after which 50 µL of RB was added, centrifuged, washed two times with 150 µL of RB, and taken up in 150 µL of RB. For intracellular staining, cells were fixed and permeabilized using the eBioscience Foxp3/Transcription Factor Staining Buffer Set (Thermofisher). Cells were then stained with 100 µL of antibody mixture and incubated for 40 min in the dark at RT. Cells were centrifuged, washed twice with 150 µL of RB, and resuspended in 150 µL of RB. Samples were analyzed using the SONY ID7000 spectral flow cytometer and the accompanying software (Table 4 ).
To determine the pulmonary metastatic area, lungs from MACTIDE‐V monotherapy were stained for hematoxylin and eosin according to the following protocol. […]

[3] = Hepatic and renal toxicity serum levels in healthy mice; format: in vivo; conditions: 48 h after one i.p. dose of 3 mg/Kg, healthy Balb/c mice, n = 4
Method: To investigate potential off‐target risk in vivo caused by MACTIDE‐V we analyzed the serum levels of the hepatic enzyme alanine aminotransferase (ALAT) following a 3 mg Kg^−1 dose of MACTIDE‐V in healthy mice. If MACTIDE‐V causes off‐target inflammation, it would likely occur in the liver (the organ that expresses the MACTIDE receptor) and would reflect on ALAT levels (liver inflammation produces a > 2‐fold increase in ALAT^[ [35] ^]).
Table S1. Hepatic and renal toxicity analysed following one dose of MACTIDE-V. Hepatic and renal toxicology serum levels of Crea and ALAT 48 h after i.p.-administration of MACTIDE-V (3 mg/kg) in healthy Balb/c mice (n=4). Normal ranges were obtained from Mouse Phenome Database by The Jackson Laboratory.

[4] = Solubility in water; format: physicochemical; conditions: method not given
Description: Verteporfin (V), is a photosensitizer and inhibitor of the activation of YAP.^[ [41] ^] […] Verteporfin, in its liposomal formulation Visudyne, is an approved drug for certain ophthalmological indications. In clinical trials for cancer therapy, Verteporfin is mostly used for photodynamic therapy (clinical trial identifiers: NCT03067051, NCT03033225, NCT04590664).

[5] = tumor flow cytometry, n = 4 per group

Substance: Vert‐Ahx‐G(CTKSIPPIC)SPGAK‐OH (disulfide) [MACTIDE‐V]
- MHCII expression in B6 BMDM (GeoMean) ([1]; flow cytometry 48 h after treatment, n = 4): increased MHCII expression
- inflammatory gene mRNA expression in B6 BMDM ([1]; real-time PCR 48 h after treatment, n = 2): upregulated the inflammatory genes Il‐1b, Il‐12 and Nos2
- primary tumor volume ([2]; 9 doses i.p. every other day, 30 nmol (1 mg Kg^−1 in Verteporfin per dose), 4 weeks after tumor induction, versus CtrlPep‐V and PBS): significantly smaller tumor volumes
- pulmonary metastasis ([2]; 9 doses i.p. every other day, 1 mg Kg^−1 in Verteporfin per dose, area from H&E sections): fewer pulmonary metastasis
- endpoint tumor weights ([2]; 9 doses i.p. every other day, 1 mg Kg^−1 in Verteporfin per dose, sacrifice day 25): smaller endpoint tumor weights
- CD4^+ T cell density (mIHC) ([2]; compared to CtrlPep‐V and PBS, n = 6 mice/group): significant increase in CD4^+ T cell density
- Treg density (mIHC) ([2]; n = 6 mice/group): no differences in Treg density
- MHC II^−CD206^+ subset of TAM/monocytes [2, 5]: decreased
- PD‐1 expression in CD8^+ and CD4^+ T cells [2, 5]: decrease in PD‐1 expression
- percentage of MHCII^+CD206^+ TAM/monocytes [2, 5]: increased
- tumor‐infiltrating B cells [2, 5]: no change
- proportion of tumor‐infiltrating T cells and NK cells ([2]; tumor flow cytometry, with respect to CtrlPep‐V and PBS, n = 4 per group): rise in the proportion
- Creatinine, serum ([3]; normal range 10-36): 11.8 ± 1 µM
- Alanine aminotransferase, serum ([3]; normal range 50-90): 52 ± 10.5 U/I
- solubilization of Verteporfin by conjugation [4]: able to solubilize Verteporfin
